# Reference: US11214594B2, “Antimicrobial peptide having synergistic antibacterial effect with antibiotics on multidrug resistant bacteria, and use thereof” (priority 2016, dated 2022)
# Where two headings read alike, the source gives them in different places. Where a SMILES comes first, the peptide text is derived from it.
# Experiments:
# [1] = tested on: MDRPA 2002; type: cell-based, Pseudomonas aeruginosa
# Summary of the method: (§1)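 MIC read-out = lowest peptide level with no bacterial proliferation. Strains diluted in MH medium to 2×10^6 CFU; peptide twofold serial dilutions in MH added 1:1 in microtiter wells.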
# [2] = tested on: MDRPA 2003; type: cell-based, Pseudomonas aeruginosa
# Summary of the method: as §1
# [3] = tested on: MDRAB 12035; test: microbe, parasite or virus in culture; type: cell-based, Acinetobacter baumannii
# Summary of the method: as §1
# [4] = tested on: A. baumannii; test: microbe, parasite or virus in culture; type: cell-based, Acinetobacter baumannii
# Summary of the method: as §1
# [5] = tested on: E. coli; type: cell-based, Escherichia coli; conditions: E. coli
# Summary of the method: (§2)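 Antibiotic MIC came from antibiotic dilutions added to bacteria (2×10^6 CFU/ml, MH medium) already combined with peptide serially diluted 2:1 from its own MIC. Swapping the roles of the two agents gave the peptide MIC.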
# [6] = tested on: MDREC 1229; type: cell-based, Escherichia coli
# Summary of the method: as §2
# [7] = tested on: MDRAB 12035; test: MIC of antibiotic during combined treatment with antimicrobial peptide; type: cell-based, Acinetobacter baumannii
# Summary of the method: as §2
# [8] = tested on: multi-drug resistant bacteria; test: MIC, summary statements for multi-drug resistant bacteria; type: cell-based
# Method: For the antibacterial activity, a minimal inhibitory concentration (MIC) of a peptide in which fungus bodies were not split in an MH medium with sufficient nutrients was measured.
# Specifically, the strains described in the following [Table 2] were purchased and diluted with an MH medium such that the number of bacteria was 2×10^6 colony-forming units (CFUs), 100 μl of each of the diluted strains was aliquoted into a 96-well microtiter plate, and then 100 μl of a peptide solution diluted with the MH medium (solution diluted stepwise at 2: 1) was added to each well.
# [9] = tested on: A. baumannii; test: MIC of antibiotic during combined treatment with antimicrobial peptide; type: cell-based, Acinetobacter baumannii; conditions: for Antibiotic MIC, Erythromycin / Antibiotic MIC, Linezolid / Antibiotic MIC, Vancomycin: A. baumannii
# Summary of the method: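 Antibiotic diluted in MH medium, dispensed per well with peptide; setup repeated with roles reversed; MIC read per combination.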
# [10] = tested on: B. subtilis; test: microbe, parasite or virus in culture; type: cell-based, Bacillus subtilis
# Summary of the method: as §1
# [11] = peptide treatment concentration 1 μg/ml
# [12] = peptide treatment concentration 2 μg/ml
# [13] = peptide treatment concentration 4 μg/ml
# [14] = peptide treatment concentration 6 μg/ml
# [15] = peptide treatment concentration 8 μg/ml
# [16] = peptide treatment concentration 16 μg/ml
# [17] = peptide treatment concentration 32 μg/ml
# [18] = peptide treatment concentration 64 μg/ml
# [19] = combined with peptide at 1 μg/ml
# [20] = combined with peptide at 2 μg/ml
# [21] = combined with peptide at 4 μg/ml
# [22] = combined with peptide at 6 μg/ml
# [23] = combined with peptide at 8 μg/ml
# [24] = combined with peptide at 16 μg/ml
# [25] = combined with peptide at 32 μg/ml
# [26] = combined with peptide at 64 μg/ml
smiles,measurement,setting,value
"CC[C@H](C)[C@H](NC(=O)[C@H](CCCCN)NC(=O)[C@H](Cc1c[nH]c2ccccc12)NC(=O)[C@@H](N)CCCNC(=N)N)C(=O)N[C@@H](Cc1ccccc1)C(=O)N[C@@H](CCCCN)C(=O)N[C@@H](CCCCN)C(=O)N[C@H](C(=O)N1CCC[C@H]1C(=O)N[C@@H](CCCCN)C(=O)N[C@@H](CC(C)C)C(=O)N[C@@H](CC(C)C)C(=O)N[C@@H](Cc1c[nH]cn1)C(=O)N[C@@H](CCC(=O)O)C(=O)N[C@@H](C)C(=O)N[C@@H](CCCCN)C(=O)N[C@@H](CCCCN)C(=O)N[C@@H](Cc1c[nH]c2ccccc12)C(N)=O)[C@@H](C)CC [PapMA-13, RWK IFK KIP KLL HEA KKW-NH2] (H-RWKIFKKIPKLLHEAKKW-NH2; N-terminus assumed)",Minimal inhibitory concentration MIC,[1],128 µg/mL
same,Minimal inhibitory concentration MIC,[2],128 µg/mL
same,Minimal inhibitory concentration MIC,[3],16 µg/mL
same,"Peptide MIC, peptide alone",[3],16 µg/mL
same,Minimal inhibitory concentration MIC,[4],16 µg/mL
same,"Peptide MIC, peptide alone",[4],16 µg/mL
same,Antibacterial activity relative to PapMA-1,[4]; A. baumannii and S. typhimurium,at least twice as high
same,Peptide MIC,[5]; with Erythromycin […] (Conc./MIC 1),0 µg/mL
same,Peptide MIC,[5]; with Linezolid […] (Conc./MIC 1),0 µg/mL
same,Peptide MIC,[5]; with Vancomycin 1024 μg/ml (Conc./MIC 1),0 µg/mL
same,Peptide MIC during treatment with antibiotic,[6]; erythromycin 32 μg/ml (Conc./MIC 1/8),2 µg/mL
same,Peptide MIC during treatment with antibiotic,[6]; erythromycin 64 μg/ml (Conc./MIC 1/4),2 µg/mL
same,Peptide MIC during treatment with antibiotic,[6]; erythromycin […] (Conc./MIC 1),0 µg/mL
same,Peptide MIC during treatment with antibiotic,[6]; erythromycin […] (Conc./MIC 1/2),2 µg/mL
same,Peptide MIC during treatment with antibiotic,[6]; linezolid 64 μg/ml (Conc./MIC 1/8),4 µg/mL
same,Peptide MIC during treatment with antibiotic,[6]; linezolid 512 μg/ml (Conc./MIC 1),0 µg/mL
same,Peptide MIC during treatment with antibiotic,[6]; linezolid […] (Conc./MIC 1/2),2 µg/mL
same,Peptide MIC during treatment with antibiotic,[6]; linezolid […] (Conc./MIC 1/4),2 µg/mL
same,Peptide MIC during treatment with antibiotic,[6]; vancomycin 512 μg/ml (Conc./MIC 1/2),2 µg/mL
same,Peptide MIC during treatment with antibiotic,[6]; vancomycin 1024 μg/ml (Conc./MIC 1),1 µg/mL
same,Peptide MIC during treatment with antibiotic,[6]; vancomycin […] (Conc./MIC 1/4),4 µg/mL
same,Peptide MIC during treatment with antibiotic,[6]; vancomycin […] (Conc./MIC 1/8),8 µg/mL
same,Erythromycin MIC during combined treatment with peptide,[7]; [11],16 µg/mL
same,Linezolid MIC during combined treatment with peptide,[7]; [11],128 µg/mL
same,Vancomycin MIC during combined treatment with peptide,[7]; [11],128 µg/mL
same,Erythromycin MIC during combined treatment with peptide,[7]; [12],8 µg/mL
same,Linezolid MIC during combined treatment with peptide,[7]; [12],32 µg/mL
same,Vancomycin MIC during combined treatment with peptide,[7]; [12],64 µg/mL
same,Erythromycin MIC during combined treatment with peptide,[7]; [13],4 µg/mL
same,Linezolid MIC during combined treatment with peptide,[7]; [13],16 µg/mL
same,Vancomycin MIC during combined treatment with peptide,[7]; [13],16 µg/mL
same,Erythromycin MIC during combined treatment with peptide,[7]; [14],1 µg/mL
same,Linezolid MIC during combined treatment with peptide,[7]; [14],8 µg/mL
same,Vancomycin MIC during combined treatment with peptide,[7]; [14],2 µg/mL
same,Erythromycin MIC during combined treatment with peptide,[7]; [15],0.5 µg/mL
same,Linezolid MIC during combined treatment with peptide,[7]; [15],2 µg/mL
same,Vancomycin MIC during combined treatment with peptide,[7]; [15],1 µg/mL
same,Erythromycin MIC during combined treatment with peptide,[7]; [16],0 µg/mL
same,Linezolid MIC during combined treatment with peptide,[7]; [16],0 µg/mL
same,Vancomycin MIC during combined treatment with peptide,[7]; [16],0 µg/mL
same,Erythromycin MIC during combined treatment with peptide,[7]; [17],0 µg/mL
same,Linezolid MIC during combined treatment with peptide,[7]; [17],0 µg/mL
same,Vancomycin MIC during combined treatment with peptide,[7]; [17],0 µg/mL
same,Erythromycin MIC during combined treatment with peptide,[7]; [18],0 µg/mL
same,Linezolid MIC during combined treatment with peptide,[7]; [18],0 µg/mL
same,Vancomycin MIC during combined treatment with peptide,[7]; [18],0 µg/mL
same,Antibacterial activity relative to PapMA-1,[8],twice to four times higher
same,Synergistic effect of antibacterial activity with existing antibiotics compared with PapMA-1,[9]; A. baumannii and MDRAB 12035,higher level than the PapMA-1 peptide
same,"Antibiotic MIC, Erythromycin",[9]; [19],16 µg/mL
same,"Antibiotic MIC, Linezolid",[9]; [19],64 µg/mL
same,"Antibiotic MIC, Vancomycin",[9]; [19],128 µg/mL
same,"Antibiotic MIC, Erythromycin",[9]; [20],8 µg/mL
same,"Antibiotic MIC, Linezolid",[9]; [20],32 µg/mL
same,"Antibiotic MIC, Vancomycin",[9]; [20],64 µg/mL
same,"Antibiotic MIC, Erythromycin",[9]; [21],1 µg/mL
same,"Antibiotic MIC, Linezolid",[9]; [21],4 µg/mL
same,"Antibiotic MIC, Vancomycin",[9]; [21],4 µg/mL
same,"Antibiotic MIC, Erythromycin",[9]; [22],0.5 µg/mL
same,"Antibiotic MIC, Linezolid",[9]; [22],2 µg/mL
same,"Antibiotic MIC, Vancomycin",[9]; [22],1 µg/mL
same,"Antibiotic MIC, Erythromycin",[9]; [23],0.125 µg/mL
same,"Antibiotic MIC, Linezolid",[9]; [23],1 µg/mL
same,"Antibiotic MIC, Vancomycin",[9]; [23],0.5 µg/mL
same,"Antibiotic MIC, Erythromycin",[9]; [24],0 µg/mL
same,"Antibiotic MIC, Linezolid",[9]; [24],0 µg/mL
same,"Antibiotic MIC, Vancomycin",[9]; [24],0 µg/mL
same,"Antibiotic MIC, Erythromycin",[9]; [25],0 µg/mL
same,"Antibiotic MIC, Linezolid",[9]; [25],0 µg/mL
same,"Antibiotic MIC, Vancomycin",[9]; [25],0 µg/mL
same,"Antibiotic MIC, Erythromycin",[9]; [26],0 µg/mL
same,"Antibiotic MIC, Linezolid",[9]; [26],0 µg/mL
same,"Antibiotic MIC, Vancomycin",[9]; [26],0 µg/mL
same,Minimal inhibitory concentration MIC,[10],>128 µg/mL
